Laboratory results as given in US9896438B2, “2,2,2-trifluoroethyl-thiadiazines” (Hoffmann-La Roche Inc., priority 2014, dated 2018).
Counter-ions that a name gives are not always drawn.

Molecular target: T1, BACE1 (Homo sapiens, UniProt P56817)
T1 construct: endogenous in cells; host or cells: HEK293 APP cells
Test: Cellular Aβ-lowering assay (Abeta 40 AlphaLISA in HEK293 APP cells)
Assay type: cell-based
Details: 18-20 hrs incubation, Aβ 40 in culture supernatants by AlphaLISA
Procedure: Cellular Aβ-Lowering Assay:
The Abeta 40 AlphaLISA Assay can be used. The HEK293 APP cells were seeded in 96 well Microtiter plates in cell culture medium (Iscove's, plus 10% (v/v) fetal bovine serum, penicillin/streptomycin) to about 80% confluency and the compounds were added at a 3× concentration in ⅓ volume of culture medium (final DMSO concentration was kept at 1% v/v). After 18-20 hrs incubation at 37° C. and 5% CO2 in a humidified incubator, the culture supernatants were harvested for the determination of Aβ 40 concentrations using Perkin-Elmer Human Amyloid beta 1-40 (high specificity) Kit (Cat# AL275C).
In a Perkin-Elmer White Optiplate-384 (Cat#6007290), 2 ul culture supernatants were combined with 2 μl of a 10× AlphaLISA Anti-hAβAcceptor beads+Biotinylated Antibody Anti-Aβ 1-40 Mix (50 μg/mL/5 nM). After 1 hour room temperature incubation, 16 μl of a 1.25× preparation of Streptavidin (SA) Donor beads (25 μg/mL) were added and incubated for 30 minutes in the Dark. Light Emission at 615 nm was then recorded using En Vision-Alpha Reader. Levels of Aβ 40 in the culture supernatants were calculated as percentage of maximum signal (cells treated with 1% DMSO without inhibitor). The IC50 values were calculated using the Excel XLfit software.

T1 sequence (P56817 46-501): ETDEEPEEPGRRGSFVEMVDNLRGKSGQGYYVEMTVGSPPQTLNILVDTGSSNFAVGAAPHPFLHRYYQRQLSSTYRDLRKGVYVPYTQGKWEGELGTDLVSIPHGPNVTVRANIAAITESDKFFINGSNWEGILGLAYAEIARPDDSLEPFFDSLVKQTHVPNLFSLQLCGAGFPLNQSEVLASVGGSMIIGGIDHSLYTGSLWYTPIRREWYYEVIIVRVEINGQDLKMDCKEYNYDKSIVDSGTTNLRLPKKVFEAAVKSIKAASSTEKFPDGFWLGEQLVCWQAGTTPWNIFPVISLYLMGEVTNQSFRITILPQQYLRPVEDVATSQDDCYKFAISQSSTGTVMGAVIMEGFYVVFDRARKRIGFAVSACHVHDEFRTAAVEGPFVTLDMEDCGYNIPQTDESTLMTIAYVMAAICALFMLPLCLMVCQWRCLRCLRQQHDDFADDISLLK

Structure (SMILES) | IC50
Cc1cc(C#N)cnc1C(=O)Nc1ccc(F)c([C@]2(C)C[S@@](=O)(=NCC(F)(F)F)N(C)C(N)=N2)n1 [Example 3, N-[6-[(1R,5R)-3-amino-2,5-dimethyl-1-oxo-1-(2,2,2-trifluoroethylimino)-6H-1,2,4-thiadiazin-5-yl]-5-fluoro-2-pyridyl]-5-cyano-3-methyl-pyridine-2-carboxamide 2,2,2-trifluoroacetic Acid Salt] | 0.991 nM
CN1C(N)=N[C@](C)(c2nc(NC(=O)c3ccc(C#N)cn3)ccc2F)C[S@@]1(=O)=NCC(F)(F)F [Example 4, N-[6-[(1R,5R)-3-amino-2,5-dimethyl-1-oxo-1-(2,2,2-trifluoroethylimino)-6H-1,2,4-thiadiazin-5-yl]-5-fluoro-2-pyridyl]-5-cyano-pyridine-2-carboxamide 2,2,2-trifluoroacetic Acid Salt] | 2.7 nM
Cc1cc(F)cnc1C(=O)Nc1ccc(F)c([C@]2(C)C[S@@](=O)(=NCC(F)(F)F)N(C)C(N)=N2)n1 [Example 5, N-[6-[(1R,5R)-3-amino-2,5-dimethyl-1-oxo-1-(2,2,2-trifluoroethylimino)-6H-1,2,4-thiadiazin-5-yl]-5-fluoropyridin-2-yl]-5-fluoro-3-methylpyridine-2-carboxamide 2,2,2-trifluoroacetic Acid Salt] | 13.9 nM
CN1C(N)=N[C@](C)(c2nc(NC(=O)c3ccc(OCF)cn3)ccc2F)C[S@@]1(=O)=NCC(F)(F)F [Example 6, N-[6-[(1R,5R)-3-amino-2,5-dimethyl-1-oxo-1-(2,2,2-trifluoroethylimino)-6H-1,2,4-thiadiazin-5-yl]-5-fluoropyridin-2-yl]-5-(fluoromethoxy)pyridine-2-carboxamide 2,2,2-trifluoroacetic Acid Salt] | 3.84 nM
CC#CCOc1cnc(C(=O)Nc2ccc(F)c([C@]3(C)C[S@@](=O)(=NCC(F)(F)F)N(C)C(N)=N3)n2)cn1 [Example 7, N-[6-[(1R,5R)-3-amino-2,5-dimethyl-1-oxo-1-(2,2,2-trifluoroethylimino)-6H-1,2,4-thiadiazin-5-yl]-5-fluoropyridin-2-yl]-5-but-2-ynoxypyrazine-2-carboxamide; 2,2,2-trifluoroacetic Acid] | 0.737 nM

Results, then the compound that gave them:

IC50 | Structure (SMILES)
10.1 nM | COc1cnc(C(=O)Nc2ccc(F)c([C@]3(C)C[S@@](=O)(=NCC(F)(F)F)N(C)C(N)=N3)n2)cn1 [Example 8, N-[6-[(1R,5R)-3-amino-2,5-dimethyl-1-oxo-1-(2,2,2-trifluoroethylimino)-6H-1,2,4-thiadiazin-5-yl]-5-fluoropyridin-2-yl]-5-methoxypyrazine-2-carboxamide 2,2,2-trifluoroacetic Acid Salt]
50.7 nM | CN1C(N)=N[C@](C)(c2nc(NC(=O)c3ccc(OCC(F)(F)F)cn3)ccc2F)C[S@@]1(=O)=NCC(F)(F)F [Example 9, N-[6-[(1R,5R)-3-amino-2,5-dimethyl-1-oxo-1-(2,2,2-trifluoroethylimino)-6H-1,2,4-thiadiazin-5-yl]-5-fluoropyridin-2-yl]-5-(2,2,2-trifluoroethoxy)pyridine-2-carboxamide 2,2,2-trifluoroacetic Acid Salt]
134 nM | CN=S1(=O)CC(C)(c2nc(NC(=O)c3ncc(C#N)cc3C)ccc2F)N=C(N)N1CC(F)(F)F (stereo not drawn) [Example 13, N-[6-[3-amino-5-methyl-1-methylimino-1-oxo-2-(2,2,2-trifluoroethyl)-6H-1,2,4-thiadiazin-5-yl]-5-fluoropyridin-2-yl]-5-cyano-3-methylpyridine-2-carboxamide; 2,2,2-trifluoroacetic Acid]
0.986 nM | CN=S1(=O)C[C@@](C)(c2nc(NC(=O)c3ncc(C#N)cc3C)ccc2F)N=C(N)N1CC(F)(F)F (stereo partly drawn) [Example 15, N-[6-[(5R)-3-amino-5-methyl-1-methylimino-1-oxo-2-(2,2,2-trifluoroethyl)-6H-1,2,4-thiadiazin-5-yl]-5-fluoropyridin-2-yl]-5-cyano-3-methylpyridine-2-carboxamide; 2,2,2-trifluoroacetic acid]
0.593 nM | CN=S1(=O)C[C@@](C)(c2nc(NC(=O)c3ncc(C#N)cc3C)ccc2F)N=C(N)N1CC(F)(F)F (stereo partly drawn) [Example 16, N-[6-[(5R)-3-amino-5-methyl-1-methylimino-1-oxo-2-(2,2,2-trifluoroethyl)-6H-1,2,4-thiadiazin-5-yl]-5-fluoropyridin-2-yl]-5-cyano-3-methylpyridine-2-carboxamide; 2,2,2-trifluoroacetic Acid]
0.292 nM | CN=S1(=O)C[C@@](C)(c2nc(NC(=O)c3ncc(C#N)cc3Cl)ccc2F)N=C(N)N1CC(F)(F)F (stereo partly drawn) [Example 17, N-(6-((5R)-3-amino-5-methyl-1-(methylimino)-1-oxido-2-(2,2,2-trifluoroethyl)-5,6-dihydro-2H-1,2,4-thiadiazin-5-yl)-5-fluoropyridin-2-yl)-3-chloro-5-cyanopicolinamide]
74.5 nM | CN=S1(=O)C[C@@](C)(c2nc(NC(=O)c3ncc(F)cc3C)ccc2F)N=C(N)N1CC(F)(F)F (stereo partly drawn) [Example 18, N-[6-[(5R)-3-amino-5-methyl-1-methylimino-1-oxo-2-(2,2,2-trifluoroethyl)-6H-1,2,4-thiadiazin-5-yl]-5-fluoropyridin-2-yl]-5-fluoro-3-methylpyridine-2-carboxamide; 2,2,2-trifluoroacetic acid]
